Laboratory results reported in ChEMBL document CHEMBL3044727, “Syntheses, spectral, crystallographic, antimicrobial, and antioxidant studies of few Mannich bases” (2012).

Columns and labels:
Format in all cases: functional
Aspergillus oryzae [1] = assay: Antimicrobial activity against Aspergillus oryzae MTCC 3782 at 40 ug after 48 hr by streak plate method; details: MTCC 3782, 48 h, read-out: IZ
Salmonella typhi [2] = assay: Antimicrobial activity against Salmonella enterica subsp. enterica serovar Typhi MTCC 3917 at 40 ug after 24 hr by streak plate method; details: MTCC 3917, 24 h, read-out: IZ
[3] = system: Radical scavenging activity; assay: Antioxidant activity assessed as DPPH radical scavenging activity at 50 ug
[4] = Antioxidant activity assessed as inhibition of linoleic acid peroxidation at 75 ug by FTC method
[5] = system: Radical scavenging activity; assay: Antioxidant activity assessed as DPPH radical scavenging activity at 25 ug
[6] = system: Radical scavenging activity; assay: Antioxidant activity assessed as DPPH radical scavenging activity at 100 ug
[7] = Antioxidant activity assessed as inhibition of linoleic acid peroxidation at 125 ug by FTC method
[8] = Antioxidant activity assessed as inhibition of linoleic acid peroxidation at 25 ug by FTC method
[9] = Antioxidant activity assessed as inhibition of linoleic acid peroxidation at 100 ug by FTC method
Aspergillus fumigatus [10] = assay: Antimicrobial activity against Aspergillus fumigatus MTCC 6594 at 60 ug after 48 hr by streak plate method; details: MTCC 6594, 48 h, read-out: IZ
Bacillus subtilis [11] = assay: Antimicrobial activity against Bacillus subtilis MTCC 4905 at 40 ug after 24 hr by streak plate method; details: MTCC 4905, 24 h, read-out: IZ
Aspergillus oryzae [12] = assay: Antimicrobial activity against Aspergillus oryzae MTCC 3782 at 20 ug after 48 hr by streak plate method; details: MTCC 3782, 48 h, read-out: IZ
Salmonella typhi [13] = assay: Antimicrobial activity against Salmonella enterica subsp. enterica serovar Typhi MTCC 3917 at 60 ug after 24 hr by streak plate method; details: MTCC 3917, 24 h, read-out: IZ
[14] = system: Radical scavenging activity; assay: Antioxidant activity assessed as DPPH radical scavenging activity at 75 ug
[15] = system: Radical scavenging activity; assay: Antioxidant activity assessed as DPPH radical scavenging activity at 125 ug
Escherichia coli [16] = assay: Antimicrobial activity against Escherichia coli MTCC 3261 at 60 ug after 24 hr by streak plate method; details: MTCC 3261, 24 h, read-out: IZ
[17] = Antioxidant activity assessed as inhibition of linoleic acid peroxidation at 50 ug by FTC method
Bacillus subtilis [18] = assay: Antimicrobial activity against Bacillus subtilis MTCC 4905 at 60 ug after 24 hr by streak plate method; details: MTCC 4905, 24 h, read-out: IZ
Escherichia coli [19] = assay: Antimicrobial activity against Escherichia coli MTCC 3261 at 40 ug after 24 hr by streak plate method; details: MTCC 3261, 24 h, read-out: IZ
[20] = system: Radical scavenging activity; assay: Antioxidant activity assessed as DPPH radical scavenging activity
Aspergillus oryzae [21] = assay: Antimicrobial activity against Aspergillus oryzae MTCC 3782 at 60 ug after 48 hr by streak plate method; details: MTCC 3782, 48 h, read-out: IZ
[22] = Antioxidant activity assessed as inhibition of linoleic acid peroxidation by FTC method
Salmonella typhi [23] = assay: Antimicrobial activity against Salmonella enterica subsp. enterica serovar Typhi MTCC 3917 at 20 ug after 24 hr by streak plate method; details: MTCC 3917, 24 h, read-out: IZ
Aspergillus fumigatus [24] = assay: Antimicrobial activity against Aspergillus fumigatus MTCC 6594 at 40 ug after 48 hr by streak plate method; details: MTCC 6594, 48 h, read-out: IZ
Aspergillus fumigatus [25] = assay: Antimicrobial activity against Aspergillus fumigatus MTCC 6594 at 20 ug after 48 hr by streak plate method; details: MTCC 6594, 48 h, read-out: IZ

Row | SMILES | zone of inhibition at 40 µg/disc (Aspergillus oryzae [1]) [mm] | zone of inhibition at 40 µg/disc (Salmonella typhi [2]) [mm] | Activity [3] [%] | inhibition [4] [%] | Activity [5] [%] | Activity [6] [%] | inhibition [7] [%] | inhibition [8] [%] | inhibition [9] [%] | zone of inhibition at 60 µg/disc (Aspergillus fumigatus [10]) [mm] | zone of inhibition at 40 µg/disc (Bacillus subtilis [11]) [mm] | Activity [14] [%] | Activity [15] [%] | zone of inhibition at 60 µg/disc (Escherichia coli [16]) [mm] | inhibition [17] [%] | zone of inhibition at 60 µg/disc (Bacillus subtilis [18]) [mm] | zone of inhibition at 40 µg/disc (Escherichia coli [19]) [mm] | Activity [20] | zone of inhibition at 60 µg/disc (Aspergillus oryzae [21]) [mm] | inhibition [22] | further results
1 | O=C1CCC(=O)N1C(Nc1ccccc1)c1ccccc1 (configuration not stated) | 12 | 6 | 14 | 19 | 9 | 18 | 22 | 16 | 20 | 6 | 10 | 17 | 25 | 16 | 17 | 17 | 2 | Dose-dependent effect | 15 | Dose-dependent effect | zone of inhibition at 20 µg/disc (Aspergillus oryzae [12]): 3 mm; zone of inhibition at 60 µg/disc (Salmonella typhi [13]): 11 mm
2 | Oc1cc2ccccc2cc1Cn1cccc1 | 10 | 22 | 33 | 16.2 | 32 | 36 | 19 | 10 | 17 | 3 | 14 | 35 | 38 | 14 | 13 | 16 | 4 | Dose-dependent effect | 14 | Dose-dependent effect | zone of inhibition at 20 µg/disc (Salmonella typhi [23]): 22 mm; zone of inhibition at 60 µg/disc (Salmonella typhi [13]): 23 mm
3 | O=C1c2ccccc2C(=O)N1CNc1ccccc1 | 7 | 5 | 19 | 15.6 | 15 | 22 | 16 | 11 | 15 | 2 | 9 | 20 | 24 | 8 | 13 | 14 | 3 | Dose-dependent effect | 4 | Dose-dependent effect | zone of inhibition at 20 µg/disc (Salmonella typhi [23]): 3 mm; zone of inhibition at 20 µg/disc (Aspergillus oryzae [12]): 7 mm; zone of inhibition at 60 µg/disc (Salmonella typhi [13]): 5 mm
4 | O=C1CCC(=O)N1CNc1ccccn1 | – | – | 18 | 19 | 17 | 27 | 21 | 18 | 20 | 13 | 5 | 22 | 36 | 12 | 19 | 8 | 7 | Dose-dependent effect | 15 | Dose-dependent effect | zone of inhibition at 40 µg/disc (Aspergillus fumigatus [24]): 7 mm
5 | O=C1O[C@H]([C@@H](O)CO)C(O)=C1O | – | – | 54 | 31.2 | 53 | 58 | 37 | 27.2 | 35 | – | – | 57 | 59 | – | 27 | – | – | – | – | – | –
6 | C[C@@H]1[C@H](O)[C@@H](C)/C=C/C=C/C=C/C=C/C=C/C=C/C=C/[C@H](O[C@@H]2O[C@H](C)[C@@H](O)[C@H](N)[C@@H]2O)C[C@@H]2O[C@](O)(C[C@@H](O)C[C@@H](O)[C@H](O)CC[C@@H](O)C[C@@H](O)CC(=O)O[C@H]1C)C[C@H](O)[C@H]2C(=O)O [AMPHOTERICIN B] | 12 | – | – | – | – | – | – | – | – | 30 | – | – | – | – | – | – | – | – | 16 | – | zone of inhibition at 20 µg/disc (Aspergillus oryzae [12]): 12 mm; zone of inhibition at 40 µg/disc (Aspergillus fumigatus [24]): 24 mm; zone of inhibition at 20 µg/disc (Aspergillus fumigatus [25]): 26 mm
